Reference: patent publication US10730840B2, “Substituted tetrahydroisoquinoline ethylbenzamide anti-cancer agents” (Florida A&M University, priority 2017, dated 2020)

Experiments:
[1] = test system: MCF-7 (ER positive breast cancer cell line); assay: CellTiter-Glo antiproliferative activity, MCF-7 cell line; format: cell-based, human; conditions: for IC50: Homo sapiens, MCF7, Table 1, read-out: IC50 MCF-7
Description: (§1) Numerous substituted THIQs were systematically synthesized employing molecular design and structure activity relationship studies (Suresh et al., (2014) Lett. Drug Design & Discov. 11: 428-436; Gangapuram et al., (2014) J. Cancer Sci. Ther. 6: 161-169). The compounds' cytotoxic effects on MCF-7 (estrogen receptor positive breast cancer) cell lines, MDA-MB-231 (estrogen receptor negative breast cancer) cell lines and Ishikawa cell lines using CellTiter-Glo (CTG) luminescent cell viability essay were studied. The tests were done on different concentrations of the compounds ranging from 0.01 to 100,000 nM on 5000 MCF-7 cells/well, on 5000 MDA-MB-231 cells/well and on 5000 Ishikawa cells/well. Drug exposed cells were incubated at 37° C. for three days followed by CTG assay. Then IC50 values were generated from Graph Pad Prism 4.
(§2) Chemistry: Several substituted tetrahydroisoquinolines 2d-2m, 3h, 3k, 3l, and 4a-4f were prepared according to three different procedures as shown in Schemes 1, 2 and 3 (FIGS. 2-4). […] The aminating agent 10 was prepared using a reported procedure (Tamura et al., (1972) J. Org. Chem. 40: 4133-4135). The amino salts of ring substituted 2-aminoisoquinolinium mesitylenesulfonates of general structure 11 used in the present study were prepared by the reaction of substituted isoquinolines and the aminating agent 10 as previously reported (Gangapuram et al., (2014) J. Cancer Sci. Ther. 6: 161-169). […] The aminating agent 13 was prepared using a reported procedure (Legault & Charette (2003) J. Org. Chem. 68: 7119-7122). The amino salts of ring substituted 2-aminoisoquinolinium compounds of general structure 14 were obtained with the reaction of the substituted isoquinolines and the aminating agent 13 in CH3CN heated at 50° C. for 24 hours. Without further purification, the salts were used to prepare the N-ylides by reaction with substituted acyl/sulfonyl chlorides. […] N-Oxidation of commercially available ring substituted THIQs followed by the reduction of the NO group using standard zinc/acetic acid led to the synthesis of N-amino THIQs.
(§3) The antiproliferative activities of substituted tetrahydroisoquinolines 2a-2m, 3a-3l and 4a-4f were evaluated according to the procedure reported previously (Crouch et al., (1993) J. Immunol. Methods 160: 81-88).
(§4) Human MCF-7 and MDA-MB-231 breast cancer cell lines were purchased from the NCI. The human Ishikawa endometrial cancer cell line was purchased from Sigma Aldrich. All three cell lines were cultured in phenol red-free RPMI-1640 (Hyclone) (500 mL) supplemented with L-glutamine-dipeptide (Hyclone) (5 mL), and 10% fetal bovine serum (Atlanta Biologicals) (50 mL).
(§5) The cell lines were cultured and treated with compounds under study including the standard TAM ranging from 0.01 nM to 100,000 nM concentration in the presence of 10 nM estradiol using the previous reported method (Suresh et al., (2014) Lett. Drug Des. Discov. 11: 428-436).
(§6) The amount of ATP is determined using a system based on luciferase and D-luciferin resulting in light generation.

[2] = test system: Ishikawa (endometrial) cancer cell line; assay: CellTiter-Glo antiproliferative activity, Ishikawa cell line; format: cell-based, human; conditions: 72 h exposure, in the presence of 10 nM estradiol; for IC50: Homo sapiens, Ishikawa, Table 1, read-out: IC50 Ishikawa
Description: as §1, with “4. […]” for “4.”
as §3, §4, §5, §6

[3] = test system: MCF-7, MDA-MB-231, and Ishikawa cell lines; assay: Antiproliferative activity, summary statements over the three cell lines; format: cell-based, human; conditions: MCF-7, MDA-MB-231 and Ishikawa cell lines together
Description: as §1, §2, §3, §4, §5

[4] = test system: MDA-MB-231 (ER negative breast carcinoma cell line); assay: CellTiter-Glo antiproliferative activity, MDA-MB-231 cell line; format: cell-based, human; conditions: 72 h exposure, in the presence of 10 nM estradiol; for IC50: Homo sapiens, MDA-MB-231, Table 1
Description: as §1, §2, §3, §4, §5

microtubule network = conditions: Gangapuram et al. (2014); cited from earlier work
[5] = 72 h exposure, in the presence of 10 nM estradiol

| Compound | IC50 against MCF-7 cell line [1, 5] [µg/mL] | IC50 against Ishikawa cell line [2] [µg/mL] | IC50 against MDA-MB-231 cell line [4] [µg/mL] | IC50 [1, 5] [µg/mL] | IC50 [2] [µg/mL] | melting point [°C] | IC50 [4] [µg/mL] | antiproliferative activity against MCF-7 cell line in words ([1]; based on IC50 value) | antiproliferative activity in words [3] | microtubule-destabilizing activity (microtubule network) |
| --- | --- | --- | --- | --- | --- | --- | --- | --- | --- | --- |
| CCc1ccc(C(=O)NN2CCc3ccc(O)cc3C2)cc1 [Compound 2b] | 0.2 | 0.08 | 0.13 |  |  |  |  | very active | more active than the lead structure (1) | potent microtubule-destabilizing agent |
| CCc1ccc(C(=O)Nc2cccc3c2CN(NC(=O)c2ccc(CC)cc2)CC3)cc1 [Compound 2j, N,N′-(3,4-dihydroisoquinoline-2,8(1H)-diyl)bis(4-ethylbenzamide)] |  |  |  | 9.35 | 2.74 | 113.2 to 116.4 | 9.71 |  | less active |  |
| CCc1ccc(C(=O)Nc2cccc3c2CCN(NC(=O)c2ccc(CC)cc2)C3)cc1 [Compound 3c, N,N′-(3,4-Dihydroisoquinoline-2, 5(1H)-diyl)bis(4-ethylbenzamide)] |  |  |  | 4.59 | 9.45 | 216 to 218 | 6.1 |  | less active |  |
| CCc1ccc(C(=O)NN2CCc3c(cccc3NC(C)=O)C2)cc1 [Compound 3d, N-(5-Acetamido-3,4-dihydroisoquinolin-2(1H)-yl)-4-ethylbenzamide] |  |  |  | > 33.7 | > 33.7 | 295 to 297 | > 33.7 |  | completely inactive |  |
| COc1ccc(S(=O)(=O)NN2CCc3c(cccc3OS(=O)(=O)c3ccc(OC)cc3)C2)cc1 [Compound 3l, 2-(4-Methoxyphenylsulfonamido)-1,2,3,4-tetrahydroisoquinolin-5-yl-4-methoxybenzene-sulfonate] |  |  |  | > 50.5 | > 50.5 | 182 to 183 | > 50.5 |  | completely inactive |  |

Second part, led by results:

| IC50 against MCF-7 cell line [1, 5] [µg/mL] | IC50 against Ishikawa cell line [2] [µg/mL] | IC50 against MDA-MB-231 cell line [4] [µg/mL] | IC50 [1, 5] [µg/mL] | IC50 [2] [µg/mL] | melting point [°C] | IC50 [4] [µg/mL] | Compound | antiproliferative activity against MCF-7 cell line in words ([1]; based on IC50 value) | antiproliferative activity in words [3] | microtubule-destabilizing activity (microtubule network) |
| --- | --- | --- | --- | --- | --- | --- | --- | --- | --- | --- |
|  |  |  | > 38.2 | 15 | 162 to 163 | > 38.2 | CCc1ccc(C(=O)NN2CCc3cc(OC)c(OC)cc3C2C(C)C)cc1 (stereo not drawn) [Compound 4c, 4-Ethyl-N-(1-isopropyl-6,7-dimethoxy-3,4-dihydroisoquinolin-2(1H)-yl)benzamide] |  | completely inactive |  |
|  |  |  | > 48.6 | 45.6 | 150 to 152 | > 48.6 | CCc1ccc(C(=O)NN2CCc3cc(OC(=O)c4ccc(CC)cc4)ccc3C2C(=O)OC)cc1 (stereo not drawn) [Compound 4f, Methyl-2-(4-ethylbenzamido)-6-((4-ethylbenzoyl)oxy)-1,2,3,4-tetrahydroisoquinoline-1-carboxylate] |  | completely inactive |  |
